Data on twelve compounds can be found in patent US4731241A, “Percutaneous pharmaceuticals preparation for external use” (priority 1983, dated 1988).

Where two headings read alike, the source gives them in different places.

The format of data set [1] is in vivo, male SD-JCL rats. Conditions: rat. How it is done: Five male SD-JCL rats with a mean body weight of 250 g were anesthetized with pentobarbital and the abdominal hairs were clipped with an electric clipper (20 cm^2 5×4 cm). Each of coating samples A though D was then coated on the clipped area. At 1, 2, 4 and 6 hours after application (till 8 hours for evaluation of sustained effect), 0.5 ml of venous blood was collected from the tail vain of each rat and the plasma concentration of molsidomine was determined by the following procedure.
In a mixture of 20 mg of lauric acid, which is a percutaneous absorption promotor according to this invention, and 177 mg of propylene glycol was dissolved 3 mg of clonidine to prepare a coating sample. Using this sample, a percutaneous absorption test was conducted in the same manner as Example 1. The plasma concentration of clonidine was determined by the following procedure.
The venous blood was centrifuged and the plasma was separated. A 0.2 ml of the plasma was extracted with 1 ml of 0.01 N NaOH and 5 ml of chloroform, and from 4 ml of the chloroform layer, the chloroform was evaporated. The residue was dissolved in 0.2 ml of a mixture of 0.05 M sodium acetate, acetonitrile and tetrahydrofuran (70:30:0.2, v/v), and 50 μl of this solution was subjected to liquid chromatography to determine the clonidine concentration. A column of μ-Bondapak C18 was employed. The evaluation of percutaneous absorption was carried out in the same manner as described in Example 1. […] Similar tests were conducted using oleic acid, lauryl alcohol, oleinamide and laurylamine as well but all of them were ineffective for clonidine as […].

The text on data set [2]: Then, the present inventors attempted at a systematic classification of compounds which could contribute to the percutaneous absorption of molsidomine and performed a series of experiments.
For data set [3] the following is noted: cited from earlier work.

For `Clc1cccc(Cl)c1N=C1NCCN1` [clonidine], in data set [1] (3 mg clonidine, 20 mg lauric acid, 177 mg propylene glycol, percutaneous), the “clonidine detection in the blood” value was “not detected”.
Consider `OCC(O)CO` [glycerin], for which the “promotion of percutaneous absorption of molsidomine” value (“promotion” for short) in data set [2] (added to molsidomine) is “none of them proved meaningfully effective”.
In the case of `CCCCCCCCCCCC(=O)O` [lauric acid], the “effectiveness as percutaneous absorption promoter for clonidine” value (“effectiveness” below) in data set [1] (percutaneous, clonidine) was “not effective”.
Take `CCCCCCCCCCCCO` [lauryl alcohol]: the “effectiveness” value in data set [1] (percutaneous, clonidine) was “ineffective”.
Same read-out and setting: the result for `CCCCCCCCCCCCN` [laurylamine] reads “ineffective”.
`COC(=O)c1ccccc1O` [methyl salicylate]: in data set [2], the “promotion” value is “none of them proved meaningfully effective”.
Take `CCOC(=O)[N-]c1cn(N2CCOCC2)n[o+]1` [molsidomine, N-ethoxycarbonyl-3-morpholinosydnonimine]: in data set [3] (background), the side effects entry was “few side effects” and the vasodilator activity entry was “excellent vasodilator activity”. The “percutaneous absorption of molsidomine administered alone” value in data set [3] (percutaneous route, alone) is “not well absorbed”.
For `CCCCCCCC/C=C\CCCCCCCC(=O)O` [oleic acid], the “effectiveness” value in data set [1] (in vivo) is recorded as “ineffective”.
Turning to `CCCCCCCC/C=C\CCCCCCCC(N)=O` [oleinamide], the “effectiveness” value in data set [1] (percutaneous, clonidine) is on record as “ineffective”.
As to `CC(O)CO` (centres unmarked) [propylene glycol], in data set [2] (added to molsidomine), the “promotion” value is “none of them proved meaningfully effective”.
Take `O=C(O)c1ccccc1O` [salicylic acid]: the “promotion” value in data set [2] (added to molsidomine) was “none of them proved meaningfully effective”.
Regarding `OC[C@@H](O)[C@@H](O)[C@H](O)[C@@H](O)CO` [sorbitol], the “promotion” value in data set [2] is listed as “none of them proved meaningfully effective”.
